# Experimental data from article PMC7470111, “Escherichia coli γ-carbonic anhydrase: characterisation and effects of simple aromatic/heterocyclic sulphonamide inhibitors” (Journal of Enzyme Inhibition and Medicinal Chemistry, 2020).
# Read-outs that look alike come from different tables or passages of the source.
# Target: T1, EcoCAγ (Escherichia coli, UniProt P0A9W9)
# T1 construct: gene yrdA; recombinant full-length WP_009008373.1, N-terminal His-tag, 72 extra N-terminal residues versus YrdA
# T1 sequence (P0A9W9 1-184): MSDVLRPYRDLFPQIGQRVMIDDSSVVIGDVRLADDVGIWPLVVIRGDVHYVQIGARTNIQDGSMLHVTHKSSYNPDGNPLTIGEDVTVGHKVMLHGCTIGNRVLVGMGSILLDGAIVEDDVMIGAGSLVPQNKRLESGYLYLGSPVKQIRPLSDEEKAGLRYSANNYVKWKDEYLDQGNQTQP
# Test: biochemical
# Method: The CO2 hydration activity performed by the EcoCAγ was monitored using an Applied Photophysics stopped-flow instrument. […] To determine the kinetic parameters by Lineweaver-Burk plots and the inhibition constants, a concentration of CO2 between 1.7 to 17 mM was used. At least six measurements of the original 5–10% reaction were used to assess the initial velocity for each inhibitor. The uncatalyzed rates were identically determined and detracted from the total observed rates. Stock inhibitor solutions (10–100 mM) were prepared in distilled-deionized water and dilutions up to 0.01 mM were done with the buffer test. Inhibitor and enzyme solutions were preincubated together for 15 min at room temperature prior to assay, in order to allow for the formation of the E-I complex or for the eventual active site mediated hydrolysis of the inhibitor. The inhibition constants were obtained by non-linear least-squares methods using PRISM 6 and the Cheng-Prusoff equation, as reported earlier[12]^,[14]^,[68], and represent the mean from at least three different determinations. h CAI and hCA II were recombinant enzymes obtained in-house. The synthetic E. coli gene encoding for the EcoCAγ (Accession number: WP_009008373.1) was synthesised by the Invitrogen GeneArt (ThermoFisher Scientific), a company specialised in gene synthesis, and cloned into the expression vector pET100D-Topo/γ-CA. Briefly, the gene was designed to produce the recombinant EcoCAγ as fusion proteins with a tag containing nucleotides encoding for six histidines (His-Tag) at the amino terminus of neosynthetized recombinant protein. Competent E. coli BL21 (DE3) codon plus cells (Agilent) were transformed as described by Del Prete et al.. Isopropyl β-D-1-thiogalactopyranoside (IPTG) at the concentration of 1 mM was added to the cellular culture to overexpress the recombinant EcoCAγ. After growth, the cells were harvested and disrupted by sonication. Cellular extract was purified using a nickel affinity column (His-Trap FF), which allows the interaction between the matrix functionalised with Ni^2+ ions and the His-Tag at the N-terminus of the protein. The HisTrap column (1 ml) was equilibrated with 20 ml equilibration buffer (50 mM Tris, 20 mM imidazole and 150 mM sodium chloride, pH 7.5) at 1 ml/min. The supernatant from the cellular lysate was loaded onto the column at 1 ml/min, and eluted from the column by fluxing imidazole (300 mM) at a flow of 0.5 ml/min in a buffer composed of 50 mM Tris and 300 mM sodium chloride, pH 7.5. The recovered EcoCAγ was 90% pure. The protein quantification was carried out by Bradford method (BioRAD).
Compound,Ki (inhibitor) [nM],Ki [nM]
Nc1cccc(S(N)(=O)=O)c1 [compound 1],314,–
NS(=O)(=O)c1cccc(S(N)(=O)=O)c1 [compound 3],–,246
Cc1ccc(S(N)(=O)=O)cc1 [compound 4],–,221
NCCc1ccc(S(N)(=O)=O)cc1 [compound 6],–,622
Nc1ccc(S(N)(=O)=O)cc1F [compound 7],–,605
Nc1ccc(S(N)(=O)=O)cc1Cl [compound 8],–,671
Nc1ccc(S(N)(=O)=O)cc1Br [compound 9],–,718
NS(=O)(=O)c1cc(Cl)cc(Cl)c1O [compound 10],–,2580
Nc1cc(C(F)(F)F)c(S(N)(=O)=O)cc1S(N)(=O)=O [compound 11],–,1780
Nc1cc(Cl)c(S(N)(=O)=O)cc1S(N)(=O)=O [compound 12],–,1950
Nc1nnc(S(N)(=O)=O)s1 [compound 13],–,197
Cn1nc(S(N)(=O)=O)sc1=N [compound 14],–,712
NS(=O)(=O)c1ccc(O)cc1 [compound 15],–,1010
NS(=O)(=O)c1ccc(CO)cc1 [compound 16],–,4240
NS(=O)(=O)c1ccc(CCO)cc1 [compound 17],–,1970
NS(=O)(=O)c1ccc(C(=O)O)cc1 [compound 18],–,2060
Nc1nccc(Nc2ccc(S(N)(=O)=O)cc2)n1 [compound 19],–,1890
Nc1ccc(S(=O)(=O)Nc2nnc(S(N)(=O)=O)s2)cc1 [compound 20],–,883
NS(=O)(=O)c1ccc(CCNS(=O)(=O)c2ccc([N+](=O)[O-])cc2CO)cc1 [compound 21],819,–
Nc1ccc(S(=O)(=O)Nc2ccc(S(N)(=O)=O)cc2)cc1 [compound 22],–,3500
Nc1ccc(S(=O)(=O)NCc2ccc(S(N)(=O)=O)cc2)cc1 [compound 23],–,4040
Nc1ccc(S(=O)(=O)NCCc2ccc(S(N)(=O)=O)cc2)cc1 [compound 24],–,4260
